# Measured values as given in US8207209B2, “Methods of inhibiting viral infection” (priority 2007, dated 2012).
# Entries after “also recorded” stand apart in the source; their conditions may differ.
# Key:
# Influenza = format: cell-based, influenza virus
# PRRS virus = format: cell-based
# Bovine Corona virus = format: cell-based
# Ebola virus [1] = assay: microbe, parasite or virus in culture; format: cell-based
# Marburg virus [2] = assay: organism not typed; format: cell-based
# Hepatitis C Virus = format: cell-based
# Dengue serotypes = format: cell-based, Dengue virus
# HIV = HIV infection in MT-4 cells; format: cell-based; settings: modest concentrations
# Rift Valley Fever Virus = format: cell-based
# Lassa Fever Virus = format: cell-based
# SARS = format: cell-based
# cowpox virus [3] = tested on: cowpox virus; set-up: species or system mice; settings: mouse, in vivo
# PBMC = assay: Cytokine levels in PBMC; settings: 5 uM dose
# [4] = Serum levels of 365 in BALB/c mice; settings: 5 mg/kg dose
# [5] = Response of mice to doses of 365 (safety)
# cowpox virus [6] = format: cell-based
# Ebola virus [7] = tested on: Ebola virus; set-up: species or system mice; settings: mouse, in vivo
# Marburg virus [8] = tested on: Marburg virus; set-up: species or system mice; settings: mouse, in vivo
# West Nile Virus = format: cell-based
# [9] = tested on: Paramyxoviruses including Parainfluenza and Respiratory Syncitial Virus; format: cell-based
# Caspase 1 = Caspase 1 (Homo sapiens, UniProt P29466); format: biochemical
# Sequence of Caspase 1 (P29466 120-297 limits assumed, species assumed): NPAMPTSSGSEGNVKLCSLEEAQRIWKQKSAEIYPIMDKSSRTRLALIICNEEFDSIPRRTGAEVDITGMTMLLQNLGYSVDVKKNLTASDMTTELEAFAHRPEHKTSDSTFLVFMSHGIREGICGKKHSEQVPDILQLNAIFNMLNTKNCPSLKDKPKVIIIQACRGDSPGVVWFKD
# Sequence of Caspase 1 (P29466 317-404 limits assumed, species assumed): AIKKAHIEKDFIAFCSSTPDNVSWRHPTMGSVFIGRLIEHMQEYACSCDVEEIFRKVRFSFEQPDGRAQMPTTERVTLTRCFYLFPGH
# Caspase 2 = Caspase 2 (Homo sapiens, UniProt P42575); format: biochemical
# Sequence of Caspase 2 (P42575 170-325 limits assumed, species assumed): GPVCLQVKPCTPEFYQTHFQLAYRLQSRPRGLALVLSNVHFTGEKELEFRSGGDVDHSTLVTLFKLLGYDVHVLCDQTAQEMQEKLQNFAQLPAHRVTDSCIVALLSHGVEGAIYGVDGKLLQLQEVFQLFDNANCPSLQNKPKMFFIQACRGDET
# Sequence of Caspase 2 (P42575 348-452 limits assumed, species assumed): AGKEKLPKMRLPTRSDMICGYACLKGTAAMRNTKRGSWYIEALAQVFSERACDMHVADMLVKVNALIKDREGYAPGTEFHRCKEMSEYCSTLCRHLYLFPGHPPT
# Caspase 3 = Caspase 3 (Homo sapiens, UniProt P42574); format: biochemical
# Sequence of Caspase 3 (P42574 29-175 limits assumed, species assumed): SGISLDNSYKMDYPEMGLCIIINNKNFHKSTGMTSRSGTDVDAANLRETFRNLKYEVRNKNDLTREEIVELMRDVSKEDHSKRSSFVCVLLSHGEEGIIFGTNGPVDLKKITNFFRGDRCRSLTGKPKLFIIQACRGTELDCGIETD
# Sequence of Caspase 3 (P42574 176-277 limits assumed, species assumed): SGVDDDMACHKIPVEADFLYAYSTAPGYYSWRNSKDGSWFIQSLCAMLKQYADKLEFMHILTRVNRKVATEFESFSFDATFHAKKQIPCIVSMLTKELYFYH
# Caspase 8 = Caspase 8 (Homo sapiens, UniProt Q14790); format: biochemical
# Sequence of Caspase 8 (Q14790 217-374 limits assumed, species assumed): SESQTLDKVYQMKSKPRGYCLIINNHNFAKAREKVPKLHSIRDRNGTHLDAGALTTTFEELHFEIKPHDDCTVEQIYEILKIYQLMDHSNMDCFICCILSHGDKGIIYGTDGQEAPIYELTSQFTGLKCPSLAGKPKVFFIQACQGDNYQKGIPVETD
# Sequence of Caspase 8 (Q14790 385-479 limits assumed, species assumed): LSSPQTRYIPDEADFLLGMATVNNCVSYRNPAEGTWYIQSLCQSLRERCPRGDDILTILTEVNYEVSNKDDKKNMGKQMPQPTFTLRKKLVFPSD
# Caspase 4 = Caspase 4 (Homo sapiens, UniProt P49662); assay: Caspase inhibition; format: biochemical
# Sequence of Caspase 4 (P49662 81-270 limits assumed, species assumed): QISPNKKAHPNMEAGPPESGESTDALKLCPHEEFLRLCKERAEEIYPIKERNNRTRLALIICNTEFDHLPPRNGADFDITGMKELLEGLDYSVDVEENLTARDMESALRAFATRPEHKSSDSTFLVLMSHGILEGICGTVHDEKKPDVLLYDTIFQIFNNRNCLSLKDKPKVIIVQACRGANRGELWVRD
# Sequence of Caspase 4 (P49662 290-377 limits assumed, species assumed): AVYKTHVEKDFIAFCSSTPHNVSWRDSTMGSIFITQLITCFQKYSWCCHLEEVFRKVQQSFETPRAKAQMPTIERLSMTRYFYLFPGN
# Caspase 9 = Caspase 9 (Homo sapiens, UniProt P55211); format: biochemical
# Sequence of Caspase 9 (P55211 1-315 limits assumed, species assumed): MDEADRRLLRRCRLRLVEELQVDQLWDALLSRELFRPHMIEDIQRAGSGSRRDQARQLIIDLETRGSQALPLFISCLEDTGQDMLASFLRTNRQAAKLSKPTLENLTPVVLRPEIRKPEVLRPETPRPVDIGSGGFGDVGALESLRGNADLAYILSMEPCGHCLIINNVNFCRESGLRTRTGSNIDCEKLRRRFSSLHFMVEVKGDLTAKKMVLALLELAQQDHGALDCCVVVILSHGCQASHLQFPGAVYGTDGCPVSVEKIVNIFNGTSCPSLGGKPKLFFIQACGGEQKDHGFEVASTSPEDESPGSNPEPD
# Sequence of Caspase 9 (P55211 331-416 limits assumed, species assumed): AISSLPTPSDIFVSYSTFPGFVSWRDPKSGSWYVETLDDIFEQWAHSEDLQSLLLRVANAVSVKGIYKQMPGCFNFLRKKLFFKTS
# Caspase 10 = Caspase 10 (Homo sapiens, UniProt Q92851); assay: Caspase inhibition; format: biochemical
# Sequence of Caspase 10 (Q92851 220-415 limits assumed): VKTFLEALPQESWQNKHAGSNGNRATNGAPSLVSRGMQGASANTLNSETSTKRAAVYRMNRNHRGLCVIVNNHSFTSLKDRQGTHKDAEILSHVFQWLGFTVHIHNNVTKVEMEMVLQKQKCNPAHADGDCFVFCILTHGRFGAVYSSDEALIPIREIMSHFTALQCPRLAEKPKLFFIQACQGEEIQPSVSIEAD
# Sequence of Caspase 10 (Q92851 416-521 limits assumed): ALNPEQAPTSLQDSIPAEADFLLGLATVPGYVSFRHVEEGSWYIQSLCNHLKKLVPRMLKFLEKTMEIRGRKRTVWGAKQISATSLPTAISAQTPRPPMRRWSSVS
# Hepatitis B virus (HBV) = assay: Hepatitis B virus cell based assay; settings: dose response
# [10] = mouse, in vivo
# [11] = mouse, in vivo, ip
# in vivo = settings: mouse, ip, 10 mg/kg
# [12] = Serum concentration of 723 in guinea pigs; settings: guinea pig
# [13] = In vivo safety/toxicity (LD50) study of 723
# wide variety of cells = assay: CC50 cytotoxicity of 723 in a variety of cell types; settings: cell based assays against a wide variety of cells
structure (smiles),measurement,setting,value
"Cc1cc(NCCCN(C)C)c2ccc3c(ccc4c(NCCCN(C)C)cc(C)nc43)c2n1.Cl.Cl.Cl.Cl [Compound 365, Quino[8,7-h]quinoline-1,7-diamine,N,N′-bis[3-(dimethylamino)propyl]-3,9-dimethyl-tetrahydrochloride]",effectiveness against Influenza infection,Influenza,effective
same,EC100,PRRS virus,3.2 µM
same,effectiveness in inhibiting PRRS,PRRS virus,showed effectiveness
same,effectiveness against Bovine Corona virus,Bovine Corona virus,effective; also recorded: inhibited
same,inhibition of Ebola virus,Ebola virus [1],100%
same,suppression of Marburg Virus,Marburg virus [2],suppressed
same,inhibition of HCV (luciferase signal),Hepatitis C Virus,complete inhibition
same,effectiveness against Dengue serotypes,Dengue serotypes,effective
same,inhibition of HIV,HIV,100%
same,EC50,Rift Valley Fever Virus,370 nM
same,inhibition of Rift Valley Fever Virus (zero viral particle release),Rift Valley Fever Virus,100%
same,inhibition of Lassa Fever Virus,Lassa Fever Virus,suppressed
same,inhibition of SARS,SARS,inhibited
same,survival outcomes,cowpox virus [3],did not ultimately improve survival outcomes
same,survival times,cowpox virus [3],uniformly extend survival times
same,cytokine levels relative to agent-free vehicle,PBMC,not substantially different
same,time course of serum concentration,[4],leaves the serum relatively rapidly
same,dose at which all animals survived,[5],up to 25 mg/kg
same,weight after administration,[5]; up to 25 mg/kg,not significantly impacted
"N=C(N)c1ccc(-c2ccc(-c3ccc(C(=N)N)cc3)s2)cc1 [Compound 510, benzenecarboxylmidamide,4,4′-(2,5-thiphenediyl)bis]",EC50,cowpox virus [6],~250 nM
same,"protection against Ebola virus, therapeutic",Ebola virus [7],provided protection
same,protection against lethal challenge,Ebola virus [7],100%
same,"protection, measured in terms of survival",Marburg virus [8],100%
same,inhibition measured in terms of cell survival,Ebola virus [1],100%
same,inhibition measured in terms of cell survival,Marburg virus [2],100%
same,HCV viral titers,Hepatitis C Virus,zero
same,inhibition of Lassa Fever Virus,Lassa Fever Virus,effective
same,inhibition of West Nile Virus,West Nile Virus,100%
same,protection against Paramyxovirus challenge,[9],effective
same,inhibition of Caspase 1,Caspase 1,elevated inhibition; also recorded: to some degree
same,inhibition of Caspase 2,Caspase 2,elevated inhibition; also recorded: selective inhibition
same,inhibition of Caspase 3,Caspase 3,selective inhibition
same,inhibition of Caspase 8,Caspase 8,elevated inhibition; also recorded: selective inhibition
same,inhibition of Caspase 4,Caspase 4,not
same,inhibition of Caspase 9,Caspase 9,not
same,inhibition of Caspase 10,Caspase 10,not
"N=C(N)c1ccc2oc(C=Cc3nc4ccc(C(=N)N)cc4[nH]3)cc2c1 [Compound 723, 2-[2-(5-carbamimidoyl-benzofuran-2-yl)-vinyl]-3H-benzoimidazole-5-carboxamidine]",effectiveness against Influenza infection,Influenza,comparatively poorly
same,effectiveness in inhibiting PRRS,PRRS virus,showed effectiveness
same,effectiveness against Bovine Corona virus,Bovine Corona virus,effective
same,protection on challenged mice,Ebola virus [7],90%
same,survival,Ebola virus [7],25%
same,treated animals survived,Ebola virus [7],100%
same,"protection, measured in terms of survival",Marburg virus [8],100%
same,infection inhibition,Ebola virus [1],100%
same,EC50,Ebola virus [1]; Zaire ebolavirus,≤ 50 nM
same,EC50,Marburg virus [2],≤ 50 nM
same,infection inhibition,Marburg virus [2],100%
same,effectiveness against Dengue serotypes,Dengue serotypes,effective
same,protection against Paramyxovirus challenge,[9],effective in conferring a great degree of protection
same,effectiveness in treating HBV (reduction in viral copies),Hepatitis B virus (HBV),"effectiveness, at nanomolar levels"
same,t1/2 in mammalian models,[10],two-four
same,concentrations in the liver and kidney,[11],high
same,concentrations in the spleen and the heart,[11],relatively low
same,half-life,in vivo,2 h
same,half-life,[12],4 h
same,lethal dose,[13]; administered on day zero,200 mg/kg
same,impact of dosing on weight over time,[13]; below 200 mg/kg,little or no impact
same,dose at which compound is well tolerated,[13]; in vivo,up to 100 mg/kg
same,CC50,wide variety of cells,well above safety thresholds
